Source: paper PMC5854716, “Synthesis, molecular docking, ctDNA interaction, DFT calculation and evaluation of antiproliferative and anti-Toxoplasma gondii activities of 2,4-diaminotriazine-thiazole derivatives” (Medicinal Chemistry Research, 2018)

Tested on: biphenotypic B myelomonocytic leukemia MV4-11 cells
Assay: In vitro antiproliferative assay (MTT), MV4-11
Type: cell-based, human
Conditions: mean ± SD; for IC50: Homo sapiens, MV4-11, 72 h exposure; for IC50 MV4-11: 72 h exposure
Description: Biphenotypic B myelomonocytic leukemia MV4-11, human lung carcinoma A549, human breast carcinoma MCF-7, and normal mouse fibroblast BALB/3T3 cells were obtained from American Type Culture Collection (Rockville, Maryland, USA). All the cell lines are being maintained at the Institute of Immunology and Experimental Therapy, Wroclaw, Poland. MV4-11 cells were cultured in RPMI 1640 medium (Gibco, UK) with 2 mM L-glutamine adjusted to contain 1.0 mM sodium pyruvate, and 10% fetal bovine serum (FBS) (all from Sigma-Aldrich, Germany). A549 cells were cultured in RPMI 1640+ Opti-MEM (1:1) (both from Gibco, UK), MCF-7 cells in Eagle medium (IIET, Wroclaw, Poland), BALB/3T3 in Dulbecco medium (IIET, Poland) supplemented with 2 mM L-glutamine and 1.0 mM sodium pyruvate, 10% fetal bovine serum (all from Sigma-Aldrich, Germany). The MCF-7 cell culture was supplemented with 0.8 mg/l of insulin (Sigma-Aldrich, Germany). All culture media were supplemented with 100 units/ml penicillin, and 100 µg/ml streptomycin (both from Polfa Tarchomin S.A., Poland). All cell lines were grown at 37 °C with 5% CO2 humidified atmosphere (Łączkowski et al. [2014], [2016a]).
Prior to usage, the compounds were dissolved in DMSO and culture medium (1: 9) to the concentration of 1 mg/ml, and subsequently diluted in culture medium to reach the required concentrations (0.1, 1, 10, and 100 µg/ml) (Łączkowski et al. [2014], [2016a]).
Twenty-four hours prior to the addition of the tested compounds, the cells counted using Burker hemocytometer were plated in 96-well plates (Sarstedt, Germany) at a density of 1 × 10^4 cells per well. The assay was performed after 72 h of exposure to varying concentrations of the tested agents. The in vitro cytotoxic effect of all agents was examined using the SRB assay for adherent cells (A549, MCF-7, and BALB/3T3) or MTT assay for leukemia cells (MV4-11) as described previously. The results were calculated as an inhibitory concentration 50 (IC50)—the concentration of tested agent which inhibits proliferation of 50% of the cancer cell population. Each compound in each concentration was tested in triplicate in a single experiment, which was repeated 3–7 times (Rubinstein et al. [1990]; Bramson et al. [1995]).
Twenty microliter of MTT solution (MTT: 3-(4,5-dimethylthiazol-2-yl)-2,5-diphenyltetrazolium bromide, stock solution: 5 mg/ml) was added to each well and incubated for 4 h. After the incubation time was complete, 80 µl of the lysis mixture was added to each well (lysis mixture: 225 ml dimethylformamide, 67.5 g sodium dodecyl sulfate and 275 ml of distilled water). The optical densities of the samples were read after 24 h on a Synergy H4 (BioTek Instruments USA) photometer microtiter plate reader at 570 nm (Sidoryk et al. [2012]). All of chemicals were obtained from Sigma-Aldrich, Germany.

SMILES	IC50 [µg/mL]	IC50 MV4-11 [µg/mL]
C/C(=N\Nc1nc(-c2ccc(Br)cc2)cs1)c1ccc(Nc2nc(N)nc(N)n2)cc1 [Compound 4d, (E)-N^2-(4-(1-(2-(4-(4-bromophenyl)-1,3-thiazol-2-yl)hydrazinylidene)ethyl)phenyl)-1,3,5-triazine-2,4,6-triamine]	2.14 ± 0.464	
C/C(=N\Nc1nc(-c2cc3ccccc3oc2=O)cs1)c1ccc(Nc2nc(N)nc(N)n2)cc1 [Compound 4f, (E)-3-(2-(2-(1-(4-(4,6-diamino-1,3,5-triazin-2-yloamino)phenyl)ethylidene)hydrazinyl)thiazol-4-yl)-2H-chromen-2-on]		3.08 ± 0.851
CC(=O)Nc1ccc(-c2csc(N/N=C(\C)c3ccc(Nc4nc(N)nc(N)n4)cc3)n2)cc1 [Compound 4g, (E)-N^2-(4-(2-(2-(1-(4-(4,6-diamino-1,3,5-triazin-2-yloamino)phenyl)ethylidene)hydraziny)thiazol-4-yl)phenyl)-acetamide]		2.76 ± 0.521
C/C(=N\Nc1nc(-c2ccc(NS(C)(=O)=O)cc2)cs1)c1ccc(Nc2nc(N)nc(N)n2)cc1 [Compound 4j, (E)-N-(4-(2-(2-(1-(4-(4,6-diamino-1,3,5-triazin-2-yloamino)phenyl)ethylidene)hydrazinyl)thiazol-4-yl)phenyl)-methanesulfonamide]		1.73 ± 0.091
C/C(=N\Nc1nc(-c2ccc(I)cc2)cs1)c1ccc(Nc2nc(N)nc(N)n2)cc1 [Compound 4e, (E)-N^2-(4-(1-(2-(4-(4-iodophenyl)-1,3-thiazol-2-yl)hydrazinylidene)ethyl)phenyl)-1,3,5-triazine-2,4,6-triamine]	1.13 ± 0.25	
C/C(=N\Nc1nc(-c2ccc(Cl)c(Cl)c2)cs1)c1ccc(Nc2nc(N)nc(N)n2)cc1 [Compound 4i, (E)-N^2-(4-(1-(2-(4-(3,4-dichlorophenyl)-1,3-thiazol-2-yl)hydrazinylidene)ethyl)phenyl)-1,3,5-triazine-2,4,6-triamine]	1.37 ± 0.186	
C/C(=N\Nc1nc(-c2ccccc2)cs1)c1ccc(Nc2nc(N)nc(N)n2)cc1 [Compound 4k, (E)-N^2-(4-(1-(2-(4-phenyl-1,3-thiazol-2-yl)hydrazinylidene)ethyl)phenyl)-1,3,5-triazine-2,4,6-triamine]	2.3 ± 0.97	
C/C(=N\Nc1nc(-c2ccc(Cl)cc2)cs1)c1ccc(Nc2nc(N)nc(N)n2)cc1 [Compound 4b, (E)-N^2-(4-(1-(2-(4-(4-chlorophenyl)-1,3-thiazol-2-yl)hydrazinylidene)ethyl)phenyl)-1,3,5-triazine-2,4,6-triamine]	1.89 ± 0.45	
C/C(=N\Nc1nc(-c2ccc([N+](=O)[O-])cc2)cs1)c1ccc(Nc2nc(N)nc(N)n2)cc1 [Compound 4h, (E)-N^2-(4-(1-(2-(4-(4-nitrophenyl)-1,3-thiazol-2-yl)hydrazinylidene)ethyl)phenyl)-1,3,5-triazine-2,4,6-triamine]	3.01 ± 0.476	
C/C(=N\Nc1nc(-c2ccc(F)cc2)cs1)c1ccc(Nc2nc(N)nc(N)n2)cc1 [Compound 4a, (E)-N^2-(4-(1-(2-(4-(4-fluorophenyl)-1,3-thiazol-2-yl)hydrazinylidene)ethyl)phenyl)-1,3,5-triazine-2,4,6-triamine]	3.21 ± 0.454	
C/C(=N\Nc1nc(-c2ccc(C)cc2)cs1)c1ccc(Nc2nc(N)nc(N)n2)cc1 [Compound 4c, (E)-N^2-(4-(1-(2-(4-(4-tolyl)-1,3-thiazol-2-yl)hydrazinylidene)ethyl)phenyl)-1,3,5-triazine-2,4,6-triamine]	3.09 ± 0.726	
